Experiments:
Histone deacetylase 8 = target: T1, Histone deacetylase 8 (Homo sapiens, UniProt Q9BY41); test: Inhibition of recombinant human full length GST-tagged HDAC8 expressed in Escherichia coli DH5alpha (DE3) assessed as inhibition of deacetylation activity using Fluor-de-Lys as substrate measured after 15 mins by fluorimetric assay
T1 sequence (Q9BY41 whole entry): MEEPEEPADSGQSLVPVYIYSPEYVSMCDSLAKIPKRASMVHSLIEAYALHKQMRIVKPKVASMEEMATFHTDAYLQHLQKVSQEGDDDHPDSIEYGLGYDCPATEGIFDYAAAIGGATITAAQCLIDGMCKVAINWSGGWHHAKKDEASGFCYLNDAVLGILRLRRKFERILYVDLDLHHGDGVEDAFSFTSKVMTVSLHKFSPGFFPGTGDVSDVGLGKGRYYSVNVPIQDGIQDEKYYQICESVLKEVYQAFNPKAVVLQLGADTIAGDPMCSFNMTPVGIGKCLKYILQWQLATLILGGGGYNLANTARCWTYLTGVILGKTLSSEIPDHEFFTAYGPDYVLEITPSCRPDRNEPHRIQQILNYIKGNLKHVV

[1] = Cytotoxicity against human MDA-MB-231 cells assessed as reduction in cell viability measured after 24 hrs by MTT assay; format: functional, cell-based; settings: MDA-MB-231, 24 h
Histone deacetylase 1 [2] = target: T2, Histone deacetylase 1 (Homo sapiens, UniProt Q13547); test: Inhibition of HDAC1 in human MDA-MB-231 cells assessed as inhibition of deacetylation activity at 100 nM using Fluor-de-Lys as substrate measured after 15 mins by fluorimetric assay; format: cell-based
T2 sequence (Q13547 whole entry): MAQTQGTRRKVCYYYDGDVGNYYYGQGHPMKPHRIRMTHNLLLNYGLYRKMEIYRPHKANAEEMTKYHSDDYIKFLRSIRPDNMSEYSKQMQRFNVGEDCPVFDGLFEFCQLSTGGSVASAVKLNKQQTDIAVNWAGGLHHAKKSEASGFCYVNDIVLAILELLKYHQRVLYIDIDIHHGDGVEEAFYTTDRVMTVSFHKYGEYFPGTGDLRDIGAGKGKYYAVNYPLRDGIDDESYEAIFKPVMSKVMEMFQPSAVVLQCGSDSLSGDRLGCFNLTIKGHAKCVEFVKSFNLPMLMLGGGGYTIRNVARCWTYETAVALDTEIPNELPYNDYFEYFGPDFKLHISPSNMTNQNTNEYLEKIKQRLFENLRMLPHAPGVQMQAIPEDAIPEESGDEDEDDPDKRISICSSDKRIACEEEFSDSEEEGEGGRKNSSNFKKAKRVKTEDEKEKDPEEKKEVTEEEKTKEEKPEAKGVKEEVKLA

Histone deacetylase 2 [3] = target: T3, Histone deacetylase 2 (Homo sapiens, UniProt Q92769); test: Inhibition of HDAC2 in human MDA-MB-231 cells assessed as inhibition of deacetylation activity at 100 nM using Fluor-de-Lys as substrate measured after 15 mins by fluorimetric assay; format: cell-based
T3 sequence (Q92769 whole entry): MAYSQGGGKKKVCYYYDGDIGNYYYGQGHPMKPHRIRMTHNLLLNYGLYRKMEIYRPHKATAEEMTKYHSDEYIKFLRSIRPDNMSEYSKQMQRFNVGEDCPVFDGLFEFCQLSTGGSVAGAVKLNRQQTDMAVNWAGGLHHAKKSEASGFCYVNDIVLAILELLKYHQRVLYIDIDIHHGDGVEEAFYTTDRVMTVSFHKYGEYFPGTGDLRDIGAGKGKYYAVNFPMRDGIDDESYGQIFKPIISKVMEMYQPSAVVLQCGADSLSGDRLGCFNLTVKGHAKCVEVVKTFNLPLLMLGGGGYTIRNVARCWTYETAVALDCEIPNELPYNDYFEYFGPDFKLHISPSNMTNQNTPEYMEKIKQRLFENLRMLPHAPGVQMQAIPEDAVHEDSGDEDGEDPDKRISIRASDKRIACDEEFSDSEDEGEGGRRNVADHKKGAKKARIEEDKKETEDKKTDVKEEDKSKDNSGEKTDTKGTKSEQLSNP

Histone deacetylase 3 [4] = target: T4, Histone deacetylase 3 (Homo sapiens, UniProt O15379); test: Inhibition of HDAC3 in human MDA-MB-231 cells assessed as inhibition of deacetylation activity at 100 nM using Fluor-de-Lys as substrate measured after 15 mins by fluorimetric assay; format: cell-based
T4 sequence (O15379 whole entry): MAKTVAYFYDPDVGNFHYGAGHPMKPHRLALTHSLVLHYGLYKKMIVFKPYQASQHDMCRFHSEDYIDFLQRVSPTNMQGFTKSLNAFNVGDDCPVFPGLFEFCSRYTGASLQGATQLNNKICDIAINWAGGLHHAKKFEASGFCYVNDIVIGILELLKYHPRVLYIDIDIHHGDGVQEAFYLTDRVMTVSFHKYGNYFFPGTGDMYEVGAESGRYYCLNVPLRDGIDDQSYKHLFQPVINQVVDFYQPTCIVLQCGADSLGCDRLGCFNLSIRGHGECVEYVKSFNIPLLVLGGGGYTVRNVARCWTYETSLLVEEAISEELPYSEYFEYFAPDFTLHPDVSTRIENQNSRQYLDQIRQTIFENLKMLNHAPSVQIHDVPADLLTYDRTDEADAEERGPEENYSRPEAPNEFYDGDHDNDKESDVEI

Histone deacetylase 1 [5] = target: T2, Histone deacetylase 1; test: Inhibition of HDAC1 in human MDA-MB-231 cells assessed as inhibition of deacetylation activity using Fluor-de-Lys as substrate measured after 15 mins by fluorimetric assay; format: cell-based
Histone deacetylase 2 [6] = target: T3, Histone deacetylase 2; test: Inhibition of HDAC2 in human MDA-MB-231 cells assessed as inhibition of deacetylation activity using Fluor-de-Lys as substrate measured after 15 mins by fluorimetric assay; format: cell-based
Histone deacetylase 3 [7] = target: T4, Histone deacetylase 3; test: Inhibition of HDAC3 in human MDA-MB-231 cells assessed as inhibition of deacetylation activity using Fluor-de-Lys as substrate measured after 15 mins by fluorimetric assay; format: cell-based
Homo sapiens [8] = organism: Homo sapiens; test: Selectivity ratio of IC50 for human full length GST-tagged HDAC8 expressed in Escherichia coli DH5alpha (DE3) to IC50 for HDAC1 in human MDA-MB-231 cells
Homo sapiens [9] = organism: Homo sapiens; test: Selectivity ratio of IC50 for human full length GST-tagged HDAC8 expressed in Escherichia coli DH5alpha (DE3) to IC50 for HDAC2 in human MDA-MB-231 cells
[10] = target: T5, Histone deacetylase 8 (Homo sapiens) (UniProt Q9BY41); test: Inhibition of human HDAC8 immunoprecipitated from MDA-MB-231 cell lysates assessed as inhibition of deacetylation activity at 100 nM using Fluor-de-Lys as substrate measured after 15 mins by fluorimetric assay
T5 sequence (whole entry): T1 sequence (Q9BY41 whole entry)

SMILES | IC50 (Histone deacetylase 8) [nM] | IC50 [1] [nM] | other results
NCC(=O)NCc1nnc(-c2ccccc2)o1 | 155 | 283 | 
C[C@@H](N)C(=O)NCc1nnc(-c2ccc(F)cc2)o1 | 116 | 247 | 
Cc1ccc(-c2nnc(CNC(=O)[C@@H](C)N)o2)cc1 | 121 | 254 | 
Cc1ccc(-c2nnc(CNC(=O)CN)o2)cc1 | 139 | 260 | 
COc1ccc(-c2nnc(CNC(=O)CN)o2)cc1 | 142 | 276 | 
C[C@@H](N)C(=O)NCc1nnc(-c2ccccc2)o1 | 98 to 100 | 230 | inhibition (Histone deacetylase 1 [2]): 30%; inhibition (Histone deacetylase 2 [3]): 19%; inhibition (Histone deacetylase 3 [4]): 0%; IC50 (Histone deacetylase 1 [5]): 260 nM; IC50 (Histone deacetylase 2 [6]): 135 nM; IC50 (Histone deacetylase 3 [7]): > 10000 nM; Ratio IC50 (Homo sapiens [8]): 0.38; Ratio IC50 (Homo sapiens [9]): 0.74; inhibition [10]: 53%
COc1ccc(-c2nnc(CNC(=O)[C@@H](C)N)o2)cc1 | 153 | 295 | 

Continued, in another order:

IC50 (Histone deacetylase 8) [nM] | SMILES | IC50 [1] [nM] | other results
134 | NCC(=O)NCc1nnc(-c2ccc([N+](=O)[O-])cc2)o1 | 276 | 
135 | NCC(=O)NCc1nnc(-c2ccc(F)cc2)o1 | 254 | 
127 | C[C@@H](N)C(=O)NCc1nnc(-c2ccc([N+](=O)[O-])cc2)o1 | 261 | 
